What was measured:
[1] = overall (interspecies) PK model with allometric relationships; assay type: in vivo, hamster, rat, monkey; conditions: for θ3 Coefficient for Vc: Vc = θ3 × WT^θ4 (θ4 fixed 1); for θ7 Coefficient for Vp: Vp = θ7 × WT^θ8 (θ8 fixed 1)
From the text: The volume parameters (Vc, Vp) estimated from the PK models for three different species were correlated through simple allometric scaling (=Body weight-dependent allometry) in the PK model fitted to the overall data from all species. This method is based on the power–law function, which can be represented as follows:Y = a × BW^b,(2) where Y represents the PK parameter of interest from each animal; BW represents the average body weight of each species from the relevant in vivo studies; and a and b are the allometric coefficient and exponent of the equation, respectively.
For the allometric scaling of the clearance parameters (CL, Q) in the same model, physiological parameters such as brain weight (BrW) or maximum lifespan potential (MLP) of each species were incorporated if necessary. To address the uncertainty, two allometric relationships were selected as the final models, and two sets of human PK parameters were predicted: one from the allometry of best fit and the other from the most conventional simple allometry. The appropriateness of the extrapolated human PK parameter values was assessed by comparing them with those of the comparator. Since allometric scaling is not generally recommended for the absorption parameter, human absorption parameters were determined by the final estimates from the overall PK model instead of the allometric method.
The final allometric relationship used in the overall PK model is as follows:Parameter value in each species = a × BW^b (for volume parameters, Vc and Vp),(9) Parameter value in each species = a × BW^b/BrW (for clearance parameters, CL and Q),(10) where BrW and BW represent the average brain weight and body weight of each species, respectively, and a and b are the coefficient and exponent of the allometric relationship, respectively.
The GOF plots of the final PK model are shown in Figure 3 The final parameter estimates from the overall PK model, and the precision of parameter estimates assessed by the bootstrap method are shown in Table 5.

[2] = absolute bioavailability from first-in-human study (observed oral AUC vs predicted intravenous AUC); assay type: in vivo; conditions: AUC ratio observed oral / predicted intravenous
From the text: The absolute bioavailability was estimated for each dose (Table 7) by comparing the AUC of the observed oral PK profile in the first-in-human study and that of the predicted human i.v. PK profile from animal PK data. […] Even though the trends were similar, absolute bioavailability estimated by the observed PK profile was less than one-fifth of the predicted bioavailability using the animal PK data. […] Delayed absorption was also found, and the difference in formulation between animals and humans was considered to have caused the delay by affecting the absorption rate. Simulated AUC, Cmax, and Tmax were within 2-folds, the range that is generally accepted for animal-to-human predictions.

[3] = brain weight-corrected, estimate

COc1cc(F)c(C(C)C)cc1C1=C(CN2C(=O)O[C@H](c3cc(C(F)(F)F)cc(C(F)(F)F)c3)[C@@H]2C)CC(C)(C)CC1 [CKD519]
θ5 Coefficient for Q ([1]; brain weight-corrected, Q = θ5 × WT^θ6/BrW, estimate): 0.846
θ3 Coefficient for Vc [1, 3]: 0.0735
θ7 Coefficient for Vp [1, 3]: 0.813
α Scale parameter of WB [1, 3]: 4.51
β Shape parameter of WB [1, 3]: 3.11
θ6 Exponent of Q [1, 3]: 2.04
ωCL Interindividual variability of CL [1, 3]: 25.9%
ωQ Interindividual variability of Q [1, 3]: 60.8%
ωα Interindividual variability of α [1, 3]: 27.0%
ωβ Interindividual variability of β [1, 3]: 24.0%
θ5 Coefficient for Q ([1]; simple allometry, Q = θ5 × WT^θ6, estimate): 0.0549
θ3 Coefficient for Vc ([1]; simple allometry, estimate): 0.0755
θ7 Coefficient for Vp ([1]; simple allometry, estimate): 0.829
α Scale parameter of WB ([1]; simple allometry, estimate): 4.50
β Shape parameter of WB ([1]; simple allometry, estimate): 3.01
θ6 Exponent of Q ([1]; simple allometry, estimate): 0.670
ωCL Interindividual variability of CL ([1]; simple allometry, estimate): 42.8%
ωQ Interindividual variability of Q ([1]; simple allometry, estimate): 23.9%
ωα Interindividual variability of α ([1]; simple allometry, estimate): 27.1%
ωβ Interindividual variability of β ([1]; simple allometry, estimate): 65.7%
Absolute Bioavailability ([2]; oral dose 25 mg): 0.0362
Absolute Bioavailability ([2]; oral dose 50 mg): 0.0321
Absolute Bioavailability ([2]; oral dose 100 mg): 0.0191
Absolute Bioavailability ([2]; oral dose 200 mg): 0.0140
Absolute Bioavailability ([2]; oral dose 400 mg): 0.00814

— PMC6680430, “Quantitative Prediction of Human Pharmacokinetics and Pharmacodynamics of CKD519, a Potent Inhibitor of Cholesteryl Ester Transfer Protein (CETP)” (Pharmaceutics, 2019)
